Experimental data from US20250179051A1, “PYRIMIDINLY-OXY-QUINOLINE BASED HERBICIDAL COMPOUNDS” (SYNGENTA CROP PROTECTION AG, priority 2022, published 2025).

Experiments:
Assay type in all cases: in vivo
Settings in all cases: 250 g/ha, evaluated after 13 days, five-point scale
[1] = tested on: Echinochloa crus-galli (ECHCG); test: Post-emergence herbicide glasshouse test
Method: (§1) Seeds of a variety of test species are sown in standard soil in pots Amaranthus retoflexus (AMARE), Amaranthus palmeri (AMAPA), Echinochloa crus-galli (ECHCG), Ipomoea hederacea (IPOHE), Setaria faberi (SETFA). After cultivation for one day (pre-emergence) or after 8 days cultivation (post-emergence) under controlled conditions in a glasshouse (at 24/16° C., day/night; 14 hours light; 65% humidity), the plants are sprayed with an aqueous spray solution derived from the formulation of the technical active ingredient in acetone/water (50:50) solution containing 0.5% Tween 20 (polyoxyethelyene sorbitan monolaurate, CAS RN 9005-64-5). Compounds are applied at 250 g/ha unless otherwise stated. The test plants are then grown in a glasshouse under controlled conditions in a glasshouse (at 24/16° C., day/night; 14 hours light; 65% humidity) and watered twice daily. After 13 days for pre and post-emergence, the test is evaluated for the percentage damage caused to the plant. The biological activities are shown in the following table on a five-point scale (5=81-100%; 4=61-80%; 3=41-60%; 2=21-40%; 1=0-20%).

[2] = tested on: Ipomoea hederacea (IPOHE); test: Post-emergence herbicide glasshouse test
Method: as §1

Setaria faberi (SETFA) [3] = test: Post-emergence herbicide glasshouse test
Method: as §1

[4] = tested on: Amaranthus palmeri (AMAPA); test: Post-emergence herbicide glasshouse test
Method: as §1

[5] = tested on: Amaranthus retoflexus (AMARE); test: Post-emergence herbicide glasshouse test
Method: as §1

[6] = tested on: Echinochloa crus-galli (ECHCG); test: Pre-emergence herbicide glasshouse test
Method: as §1

[7] = tested on: Ipomoea hederacea (IPOHE); test: Pre-emergence herbicide glasshouse test
Method: as §1

Setaria faberi (SETFA) [8] = test: Pre-emergence herbicide glasshouse test
Method: as §1

[9] = tested on: Amaranthus palmeri (AMAPA); test: Pre-emergence herbicide glasshouse test
Method: as §1

[10] = tested on: Amaranthus retoflexus (AMARE); test: Pre-emergence herbicide glasshouse test
Method: as §1

SMILES | percentage damage caused to the plant, ECHCG [1] | percentage damage caused to the plant, IPOHE [2] | percentage damage caused to the plant, SETFA (Setaria faberi (SETFA) [3]) | percentage damage caused to the plant, AMAPA [4] | percentage damage caused to the plant, AMARE [5] | percentage damage caused to the plant, ECHCG [6] | percentage damage caused to the plant, IPOHE [7] | percentage damage caused to the plant, SETFA (Setaria faberi (SETFA) [8]) | percentage damage caused to the plant, AMAPA [9] | percentage damage caused to the plant, AMARE [10]
CON=CCc1nc(C(F)(F)F)nc2cccc(Oc3ncc(Cl)cn3)c12 [Compound 1.007] | 1 (1=0-20%) | 1 (1=0-20%) | 1 (1=0-20%) | 2 (2=21-40%) | 2 (2=21-40%) | 1 (1=0-20%) | 1 (1=0-20%) | 1 (1=0-20%) | 1 (1=0-20%) | 1 (1=0-20%)
FC(F)(F)c1nc(CC=NOCC2CC2)c2c(Oc3ncc(Cl)cn3)cccc2n1 [Compound 1.008, 2-[5-(5-chloropyrimidin-2-yl)oxy-2-(trifluoromethyl)quinazolin-4-yl]-N-(cyclopropylmethoxy) ethanimine] | 2 (2=21-40%) | 1 (1=0-20%) | 1 (1=0-20%) | 4 (4=61-80%) | 4 (4=61-80%) | 1 (1=0-20%) | 1 (1=0-20%) | 1 (1=0-20%) | 2 (2=21-40%) | 1 (1=0-20%)
CCO/N=C/CCc1nc(C(F)(F)F)nc2cccc(Oc3ncc(Cl)cn3)c12 [Compound 1.009] | 5 (5=81-100%) | 5 (5=81-100%) | 5 (5=81-100%) | 5 (5=81-100%) | 5 (5=81-100%) | 5 (5=81-100%) | 1 (1=0-20%) | 5 (5=81-100%) | 5 (5=81-100%) | 5 (5=81-100%)
CN(C)/C=C/c1nc(C(F)(F)F)nc2cccc(Oc3ncc(Cl)cn3)c12 [Compound 1.010, 2-[5-(5-chloropyrimidin-2-yl)oxy-2-(trifluoromethyl)quinazolin-4-yl]-N,N-dimethyl-ethenamine] | 1 (1=0-20%) | 1 (1=0-20%) | 1 (1=0-20%) | 3 (3=41-60%) | 3 (3=41-60%) | 1 (1=0-20%) | 1 (1=0-20%) | 1 (1=0-20%) | 2 (2=21-40%) | 2 (2=21-40%)
C=CCON=CCCc1nc(C(F)(F)F)nc2cccc(Oc3ncc(Cl)cn3)c12 [Compound 1.011] | 4 (4=61-80%) | 2 (2=21-40%) | 4 (4=61-80%) | 4 (4=61-80%) | 5 (5=81-100%) | 4 (4=61-80%) | 2 (2=21-40%) | 5 (5=81-100%) | 5 (5=81-100%) | 5 (5=81-100%)
CCNC(=O)CCc1nc(C(F)(F)F)nc2cccc(Oc3ncc(Cl)cn3)c12 [Compound 1.012, 3-[5-(5-chloropyrimidin-2-yl)oxy-2-(trifluoromethyl)quinazolin-4-yl]-N-ethyl-propanamide] | 1 (1=0-20%) | 1 (1=0-20%) | 1 (1=0-20%) | 3 (3=41-60%) | 2 (2=21-40%) | 1 (1=0-20%) | 1 (1=0-20%) | 1 (1=0-20%) | 2 (2=21-40%) | 1 (1=0-20%)
FC(F)(F)c1ncc(-c2nc(C(F)(F)F)nc3cccc(Oc4ncc(Cl)cn4)c23)cn1 [Compound 1.013, 5-(5-chloropyrimidin-2-yl)oxy-2-(trifluoromethyl)-4-[2-(trifluoromethyl)pyrimidin-5-yl]quinazoline] | 1 (1=0-20%) | 1 (1=0-20%) | 1 (1=0-20%) | 2 (2=21-40%) | 2 (2=21-40%) | 1 (1=0-20%) | 1 (1=0-20%) | 1 (1=0-20%) | 1 (1=0-20%) | 1 (1=0-20%)
Cc1ncc(-c2nc(C(F)(F)F)nc3cccc(Oc4ncc(Cl)cn4)c23)cn1 [Compound 1.014] | 1 (1=0-20%) | 1 (1=0-20%) | 1 (1=0-20%) | 1 (1=0-20%) | 1 (1=0-20%) | 1 (1=0-20%) | 1 (1=0-20%) | 1 (1=0-20%) | 2 (2=21-40%) | 2 (2=21-40%)
Cc1cnc(Oc2cccc3nc(C(F)(F)F)nc(CCC4CC4)c23)nc1 [Compound 1.015, 4-(2-cyclopropylethyl)-5-(5-methylpyrimidin-2-yl)oxy-2-(trifluoromethyl)quinazoline] | 4 (4=61-80%) | 3 (3=41-60%) | 5 (5=81-100%) | 2 (2=21-40%) | 4 (4=61-80%) | 5 (5=81-100%) | 3 (3=41-60%) | 5 (5=81-100%) | 5 (5=81-100%) | 5 (5=81-100%)
Cn1nc(-c2nc(C(F)(F)F)nc3cccc(Oc4ncc(Cl)cn4)c23)cc1C(F)F [Compound 1.016, 5-(5-chloropyrimidin-2-yl)oxy-4-[5-(difluoromethyl)-1-methyl-pyrazol-3-yl]-2-(trifluoromethyl)quinazoline] | 1 (1=0-20%) | 2 (2=21-40%) | 1 (1=0-20%) | 2 (2=21-40%) | 2 (2=21-40%) | 1 (1=0-20%) | 1 (1=0-20%) | 1 (1=0-20%) | 2 (2=21-40%) | 1 (1=0-20%)
